In ChEMBL document CHEMBL1145437, “Synthesis and biological evaluation of N-acetyl-beta-aryl-1,2-didehydroethylamines as new HIV-1 RT inhibitors in vitro” (Bioorg Med Chem Lett, 2007):
The source made the active and inactive calls. The rule behind the calls is not given here.

Columns and labels:
[1] = tested on: Human immunodeficiency virus 1; test: Inhibition of HIV1 reverse transcriptase at 200 ug/mL
[2] = Cytotoxicity in human C8166 cells; assay type: cell-based
[3] = Inhibition of HIV1 reverse transcriptase; design: species or system Human immunodeficiency virus 1
[4] = Therapeutic index, Ratio of CC50 for human C8166 cells to EC50 for HIV1; assay type: cell-based; settings: read-out: TI
[5] = tested on: Human immunodeficiency virus 1; test: Antiviral activity against HIV1 assessed as syncytium reduction; assay type: functional, organism-based
[6] = tested on: Human immunodeficiency virus 1; test: Inhibition of HIV1 reverse transcriptase at 20 ug/mL

O=[N+]([O-])/C=C/c1ccc(O)cc1
inhibition [1]: 96.4%
CC50 [2]: 15.8 µM
IC50 [3]: 553 µM

CC(=O)N(C)/C=C/c1ccc(Br)cc1
Activity [1]: inactive

CC(=O)N/C=C/c1ccccc1Cl
inhibition [1]: 34%
selectivity ratio [4]: 2.4
EC50 [5]: 124 µM
CC50 [2]: 297 µM

O=[N+]([O-])/C=C/c1ccco1
inhibition [1]: 91.8%
CC50 [2]: 28.9 µM
IC50 [3]: 465 µM

COc1ccc(/C=C/NC(C)=O)c(OC)c1
Activity [1]: inactive

CC(=O)N/C=C/c1ccsc1
Activity [1]: inactive

CC(=O)N/C=C\c1ccsc1
inhibition [1]: 12%

Cc1ccc(/C=C/[N+](=O)[O-])cc1
inhibition [1]: 36.9%
CC50 [2]: 15.2 µM

CC(=O)N(C)/C=C/c1cccc(Br)c1
inhibition [1]: 45.4%
selectivity ratio [4]: 3.2
EC50 [5]: 128 µM
CC50 [2]: 409 µM
IC50 [3]: 838 µM

COc1ccc(/C=C/NC(C)=O)cc1
Activity [1]: inactive

O=C(O)P(=O)(O)O [FOSCARNET]
inhibition [6]: 96.5%
IC50 [3]: 1.3 µM

O=[N+]([O-])/C=C/c1ccc(C(F)(F)F)cc1
inhibition [1]: 29.4%

Cc1cc(C)c(/C=C/[N+](=O)[O-])cc1C
inhibition [1]: 31.5%
CC50 [2]: 6.9 µM

COc1cc(OC)c(OC)cc1/C=C/[N+](=O)[O-]
inhibition [1]: 49.1%
CC50 [2]: 4.7 µM
IC50 [3]: > 837 µM

O=[N+]([O-])/C=C/c1ccc(Cl)cc1
inhibition [1]: 19.8%

Cc1ccccc1/C=C/[N+](=O)[O-]
inhibition [1]: 99.2%
CC50 [2]: 7.4 µM
IC50 [3]: 261 µM

CC(=O)N/C=C/c1cccc(Br)c1
inhibition [1]: 41.5%
selectivity ratio [4]: 1.5
EC50 [5]: 89.3 µM
CC50 [2]: 134 µM

CC(=O)N/C=C/c1ccc(F)cc1
Activity [1]: inactive

O=[N+]([O-])/C=C/c1ccccc1Cl
inhibition [1]: 99.3%
CC50 [2]: 3 µM
IC50 [3]: 361 µM

Cc1cn([C@H]2C[C@H](N=[N+]=[N-])[C@@H](CO)O2)c(=O)[nH]c1=O [ZIDOVUDINE]
selectivity ratio [4]: > 471000
EC50 [5]: 0.0108 µM
CC50 [2]: > 5090 µM

CC(=O)N/C=C/c1ccco1
Activity [1]: inactive

O=[N+]([O-])/C=C/c1ccccc1 [(2-NITROVINYL)BENZENE]
inhibition [1]: 99.7%
CC50 [2]: 13.6 µM
IC50 [3]: 87.9 µM

CC(=O)N/C=C/c1ccc(C(F)(F)F)cc1
Activity [1]: inactive

O=[N+]([O-])/C=C/c1ccc(F)cc1
inhibition [1]: 22.9%

O=[N+]([O-])/C=C/c1cccc(Cl)c1
inhibition [1]: 49.8%
CC50 [2]: 4.6 µM
IC50 [3]: > 1090 µM

O=[N+]([O-])/C=C/c1ccc(Br)cc1
inhibition [1]: 20.3%
CC50 [2]: 13.6 µM

CC(=O)N/C=C/c1ccccc1C
inhibition [1]: 40.1%
selectivity ratio [4]: 1
EC50 [5]: 379 µM
CC50 [2]: 385 µM

CC(=O)N/C=C/c1cccc2ccccc12
inhibition [1]: 26.5%

O=[N+]([O-])/C=C/c1cccc(Br)c1
inhibition [1]: 13.4%

CC(=O)N/C=C/c1ccc2ccccc2c1
inhibition [1]: 30.1%
selectivity ratio [4]: 3.1
EC50 [5]: 49.7 µM
CC50 [2]: 154 µM

CC(=O)N/C=C/c1ccccc1
inhibition [1]: 22.2%

CC(=O)N(C)/C=C/c1ccccc1Br
inhibition [1]: 85.3%
selectivity ratio [4]: > 13.2
EC50 [5]: 59.8 µM
CC50 [2]: > 787 µM
IC50 [3]: 339 µM

CC(=O)N(C)/C=C/c1ccccc1Cl
inhibition [1]: 75.2%
selectivity ratio [4]: 4.6
EC50 [5]: 95.9 µM
CC50 [2]: 441 µM
IC50 [3]: 434 µM

COc1ccccc1/C=C/[N+](=O)[O-]
inhibition [1]: 99.7%
CC50 [2]: 5 µM
IC50 [3]: 225 µM

COc1ccc(/C=C/[N+](=O)[O-])cc1
inhibition [1]: 93.5%
CC50 [2]: 6.3 µM
IC50 [3]: 561 µM

CC(=O)N/C=C/c1ccc(C)cc1
inhibition [1]: 16.6%

COc1ccc(/C=C/[N+](=O)[O-])c(OC)c1
inhibition [1]: 86.3%
CC50 [2]: 5.4 µM
IC50 [3]: 553 µM

CC(=O)N/C=C/c1ccccc1F
inhibition [1]: 36.2%
selectivity ratio [4]: < 1
EC50 [5]: 383 µM
CC50 [2]: 341 µM

O=[N+]([O-])/C=C/c1ccccc1F
inhibition [1]: 95.4%
CC50 [2]: 2.8 µM
IC50 [3]: 365 µM

CC(=O)N/C=C/c1ccccc1O
inhibition [1]: 10.1%

O=[N+]([O-])/C=C/c1ccccc1O
inhibition [1]: 98.2%
CC50 [2]: 18.8 µM
IC50 [3]: 540 µM

CC(=O)N/C=C/c1ccc(O)cc1
Activity [1]: inactive

COc1ccccc1/C=C/NC(C)=O
Activity [1]: inactive

COc1cc(OC)c(OC)cc1/C=C/NC(C)=O
Activity [1]: inactive

CC(=O)N(C)/C=C/c1ccccc1C
inhibition [1]: 79.8%
selectivity ratio [4]: 5.2
EC50 [5]: 116 µM
CC50 [2]: 609 µM
IC50 [3]: 487 µM

CC(=O)N/C=C/c1ccc(Br)cc1
Activity [1]: inactive

O=[N+]([O-])/C=C/c1ccsc1
inhibition [1]: 86.2%
CC50 [2]: 25.5 µM
IC50 [3]: 709 µM

CC(=O)N/C=C/c1cccc(Cl)c1
inhibition [1]: 10.7%

CC(=O)N/C=C/c1ccc(Cl)cc1
Activity [1]: inactive

CC(=O)N/C=C/c1cc(C)c(C)cc1C
inhibition [1]: 25.4%

CC(=O)N(C)/C=C/c1ccccc1F
inhibition [1]: 61.7%
selectivity ratio [4]: 5.6
EC50 [5]: 119 µM
CC50 [2]: 667 µM
IC50 [3]: 477 µM

O=[N+]([O-])/C=C/c1ccccc1Br
inhibition [1]: 95.7%
CC50 [2]: 0.57 µM
IC50 [3]: 202 µM

O=[N+]([O-])/C=C/c1cccc2ccccc12
inhibition [1]: 81.4%
CC50 [2]: 39.6 µM
IC50 [3]: 786 µM

CC(=O)N/C=C/c1ccccc1Br
inhibition [1]: 54.4%
selectivity ratio [4]: 1.8
EC50 [5]: 134 µM
CC50 [2]: 241 µM

O=[N+]([O-])/C=C/c1ccc2ccccc2c1
inhibition [1]: 58.8%
CC50 [2]: 40.6 µM
IC50 [3]: 935 µM
